In patent US12691070B2, “Cationic lipids and preparation method thereof” (RiboX Therapeutics HK Limited, priority 2023, dated 2026):

Assays:
[1] = LNP size and polydispersity index (PDI) by dynamic light scattering; assay type: physicochemical; settings: for Size: in nm (unit assumed)
How it was run: (§1)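 Ribogreen fluorescence with and without Triton X-100 gave encapsulation as 100% − (intact/lysed) signal; DLS size, PDI and zeta potential measured on a Zetasizer. Particles: 50:10:38.5:1.5 lipid mix, luciferase circRNA or mRNA, lipid:nucleotide 15 or 6, microfluidic assembly at pH 4.5, PBS-dialyzed.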

[2] = LNP zeta potential (Zetasizer); assay type: physicochemical
How it was run: as §1

[3] = RNA encapsulation efficacy by Quant-IT Ribogreen kit; assay type: physicochemical; settings: for Encapsulation Efficiency %: LNP with cirRNA (SEQ ID NO: 1); for Encapsulation Efficiency: LNP with mRNA (SEQ ID NO: 2)
How it was run: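 LNPs of ionizable lipid/DSPC/cholesterol/DMG-PEG 2000 (50:10:38.5:1.5) made by microfluidic mixing of luciferase circRNA or mRNA in pH 4.5 acetate with lipids in ethanol (3:1, 12 ml/min), ionizable lipid:nucleotide 15 or 6, then dialyzed against PBS. Size, PDI (DLS) and zeta potential on Zetasizer; encapsulation by Ribogreen ± Triton X-100.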

Hep G2 cells [4] = experiment: In vitro expression of firefly-luciferase, Hep G2; assay type: cell-based
How it was run: (§2)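 Cells were transfected with firefly-luciferase-encoding RNA-LNPs at 100 ng/mL. After 72 hours they were washed and lysed, and luciferase activity in the lysates was read by luminometry.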

RAW 264.7 cells [5] = experiment: In vitro expression of firefly-luciferase, RAW 264.7; assay type: cell-based
How it was run: as §2

Hep G2 cells [6] = experiment: In vitro toxicity (CellTiter-Glo cell viability), Hep G2; assay type: cell-based;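 further: percent of untreated cells luminescence signal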
How it was run: (§3)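 Viability after a 72 h incubation with 1 μg/mL RNA-LNP formulations was assessed luminometrically using CellTiter-Glo.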

RAW 264.7 cells [7] = experiment: In vitro toxicity (CellTiter-Glo cell viability), RAW 264.7; assay type: cell-based;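 further: percent of untreated cells luminescence signal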
How it was run: as §3

BALB/C mice [8] = experiment: In vivo expression, whole-body luminescence (IVIS)
Procedure: 6-8 week old, female BALB/C mice were injected with 0.05 mg*kg-1 of RNA-LNPs encoding for firefly-luciferase by intravenous injection. At 6 hours post injection, animals were intraperitoneally injected with 15 mg/ml of Luciferin substrate and whole-body luminescence was determined by a bioluminescent in vivo imaging system (IVIS).

MCP-I = MCP-I cytokine elevation in serum; assay type: in vivo; settings: cirRNA (SEQ ID NO: 1) LNPs, mice
Procedure: 6-8 week old, female BALB/C mice were injected with 0.5 mg*kg-1 of RNA LNPs by intravenous injection. At 2 and 24 hours post injection, animals were bled and sera concentrations of MCP-I were determined by an immunoassay (Luminex).

[9] = test system: Alanine Aminotransferase (ALT); experiment: Liver enzyme elevation in serum, ALT; assay type: in vivo; settings: cirRNA (SEQ ID NO: 1) LNPs, BALB/C mice, intravenous 0.5 MPK
Procedure: (§4) 6-8 week old, female BALB/C mice were injected with 0.5 mg*kg-1 of RNA LNPs by intravenous injection. At 2 and 24 hours post injection, animals were bled and sera concentrations of Alanine Aminotransferase (ALT) and Aspartate Aminotransferase (AST) were determined by a blood chemistry analyzer.

[10] = test system: Aspartate Aminotransferase (AST); experiment: Liver enzyme elevation in serum, AST; assay type: in vivo; settings: cirRNA (SEQ ID NO: 1) LNPs, BALB/C mice, intravenous 0.5 MPK
Procedure: as §4

BALB/C mice [11] = experiment: Local tolerance determination by footpad injection; assay type: in vivo; settings: cirRNA (SEQ ID NO: 1) LNP, 0.175 mg*kg-1 subcutaneous into the footpad, 24 hours post minus prior
Procedure: 6-8 week old, female BALB/C mice were injected with 0.175 mg*kg-1 RNA LNPs by subcutaneous injection into the footpad. Prior to, and 24 hours post injections, injected footpad thickness was determined by a caliper.

[12] = cirRNA (SEQ ID NO: 1) LNPs, firefly-luciferase luminescence, Hep G2 cells
[13] = mRNA (SEQ ID NO: 2) LNP, 100 ng/mL, 72 hours post transfection, luciferase activity
[14] = cirRNA (SEQ ID NO: 1) LNPs, firefly-luciferase luminescence, RAW 264.7 cells
[15] = cirRNA (SEQ ID NO: 1) LNPs, Hep G2 cells
[16] = mRNA (SEQ ID NO: 2) LNP, 1 μg/mL, 72 hours post transfection
[17] = cirRNA (SEQ ID NO: 1) LNPs, RAW 264.7 cells
[18] = cirRNA (SEQ ID NO: 1) LNPs, BALB/C mice
[19] = mRNA (SEQ ID NO: 2) LNP, 0.05 mg*kg-1 intravenous, 6 hours post injection

PDI ([1]; LNP with cirRNA (SEQ ID NO: 1))	Size ([1]; LNP with cirRNA (SEQ ID NO: 1))	PDI ([1]; LNP with mRNA (SEQ ID NO: 2))	Size ([1]; LNP with mRNA (SEQ ID NO: 2))	Zeta (mV) ([2]; LNP with cirRNA (SEQ ID NO: 1))	Zeta (mV) ([2]; LNP with mRNA (SEQ ID NO: 2))	Encapsulation Efficiency % [3] [%]	Encapsulation Efficiency [3] [%]	MCP-I in Sera 2 hours After 0.5 MPK Injection (MCP-I) [pg/mL]	MCP-I in Sera 24 hours After 0.5 MPK Injection (MCP-I) [pg/mL]	Compound	In vitro Expression HepG2 (Hep G2 cells [4]; [12])	In vitro Expression HepG2 (Hep G2 cells [4]; [13])	In vitro Expression RAW (RAW 264.7 cells [5]; [14])	In vitro Expression RAW (RAW 264.7 cells [5]; [13])	In vitro Viability HepG2 (Hep G2 cells [6]; [15]) [%]	In vitro Viability HepG2 (Hep G2 cells [6]; [16]) [%]	In vitro Viability RAW (RAW 264.7 cells [7]; [17]) [%]	In vitro Viability RAW (RAW 264.7 cells [7]; [16]) [%]	In vivo Expression (Whole Body) (BALB/C mice [8]; [18])	In vivo Expression (Whole Body) (BALB/C mice [8]; [19])	other results
0.08162	90.63	0.1494	112.8	0.1617	0.9875	97	93.87	4872.33	1652.33	CCCCCCCCCCC(CCCCCCCC)COC(=O)CCCCCN(CCCCCC(=O)OCC(CCCCCCCC)CCCCCCCCCC)CCCOC(=O)NCCN1CCCCC1 (stereo not drawn) [Lipid 370]	2.65E+07	6.38E+07	1.98E+06	3.26E+07	93	94	96	107	3.68E+08	3.37E+08	ALT in Sera (IU/L) 2 hours After 0.5 MPK Injection [9]: 102.00 IU/L; ALT in Sera (IU/L) 24 hours After 0.5 MPK Injection [9]: 123.00 IU/L; AST in Sera (IU/L) 2 hours After 0.5 MPK Injection [10]: 276.33 IU/L; AST in Sera (IU/L) 24 hours After 0.5 MPK Injection [10]: 413.33 IU/L; Footpad Thickness (24 h−0 h, mm) (BALB/C mice [11]): 0.50 mm
0.1683	105.2	0.06656	88.86	3.631	3.895	96	85.44	3843.00	1289.00	CCCCCCCCC(CCCCCC)C(=O)OCCCCCCCCN(CCCCCCCCOC(=O)C(CCCCCC)CCCCCCCC)CCCOC(=O)NCCN(C)C (stereo not drawn) [Lipid 374]	1.89E+07	3.70E+07	2.34E+06	5.38E+05	70	57	84	84	1.53E+08	4.07E+09	ALT in Sera (IU/L) 2 hours After 0.5 MPK Injection [9]: 136.67 IU/L; ALT in Sera (IU/L) 24 hours After 0.5 MPK Injection [9]: 152.67 IU/L; AST in Sera (IU/L) 2 hours After 0.5 MPK Injection [10]: 435.67 IU/L; AST in Sera (IU/L) 24 hours After 0.5 MPK Injection [10]: 431.67 IU/L; Footpad Thickness (24 h−0 h, mm) (BALB/C mice [11]): 0.63 mm
0.2011	92.54	0.008186	75.13	−1.253	−4.713	89	88.53	2740.67	396.29	CCCCCCCCC(CCCCCC)C(=O)OCCCCCCCCN(CCCCCCCCOC(=O)C(CCCCCC)CCCCCCCC)CCCOC(=O)NCc1ncc[nH]1 (stereo not drawn) [Lipid 375]	1.10E+06	4.36E+05	7.06E+05	2.13E+05	100	100	90	78	3.46E+08	8.41E+08	ALT in Sera (IU/L) 2 hours After 0.5 MPK Injection [9]: 174.67 IU/L; ALT in Sera (IU/L) 24 hours After 0.5 MPK Injection [9]: 120.33 IU/L; AST in Sera (IU/L) 2 hours After 0.5 MPK Injection [10]: 292.00 IU/L; AST in Sera (IU/L) 24 hours After 0.5 MPK Injection [10]: 251.67 IU/L; Footpad Thickness (24 h−0 h, mm) (BALB/C mice [11]): 0.27 mm
